Measured values from patent US8609718B2, “Pharmaceutical composition used in treatment of hyperproliferative skin conditions and malignant melanomas comprising pachastrissamine as active ingredient” (Catholic University Industry Academy Cooperation Foundation, priority 2009, dated 2013).

Assays:
[1] = system: HaCaT cell line; test: MTT cell viability analysis (cytotoxicity), HaCaT; assay type: cell-based, human; settings: 24 hours, FIG. 1
Protocol: Pachastrissamine's cytotoxicity on a HaCaT cell line and a malignant melanoma cell line was researched through MTT cell viability analysis.
First, each of a HaCaT cell line (German Cancer Research, obtained from prof. N. Fuseni, Germany), and two kinds of malignant melanoma cell lines, B16F10 (B16) and A375 were inoculated into a DMEM (Dulbecco's Modified Eagle's Medium) culture medium added with 10% FBS (Thermo Fisher Scientific Inc.), 100 unit/ml penicillin, and 100 μg/ml streptomycin, and then cultured in a CO2 incubator (Form a Scientific, Inc.) (37° C., 5%).
The cultured HaCaT, B16F10, and A375 cells were plated onto a 96-well plate at a concentration of 5×10^4 cells/well, and cultured in a CO2 incubator (37° C., 5%) for 24 hours. The cells in respective wells were treated with pachastrissamine and phytosphingosine at various concentrations of 0, 0.9, 1.8, 3.7, 7.5, 10 μg/ml, and cultured in a CO2 incubator (37° C., 5%) for 24 hours. After the culturing, in a state where the culture medium existed, each well was added with 5 mg/ml MTT reagent at a concentration of 20 μl/[…], and cultured in an incubator for 2 hours. After 2 hours, the culture medium was removed, and each well was added with 150 μl of DMSO (dimethyl sulfoxide). Then, a spectrophotometer was used to measure the absorbance at 540 nm, thereby analyzing the cell viability. Herein, the cell viability was represented as a relative value with respect to 100% of cell viability in a control group not treated with pachastrissamine and phytosphingosine.

[2] = system: AKT; test: Western blotting of AKT phosphorylation; assay type: cell-based; settings: HaCaT, B16F10, A375, 10 μg/ml pachastrissamine, FIGS. 3A, 3B
Protocol: HaCaT, B16F10 and A375 cell lines were cultured in the same manner as described in Example 1. […] 30 minutes later, and 60 minutes later, each of the cell lines was resuspended in RIPA buffer [12 mM EDTA, 137 mM NaCl, 20 mM Tris-HCl (pH 8.0), 1 mM Na3VO4 (Sigma-Aldrich, USA) 10 mM NaF (Sigma), 1 mM PMSF (Sigma), 1% Triton X-100, 10% glycerol, protease inhibiting cocktail (Roche, Germany)], and then put on ice for 30 minutes so that the cells can be completely lysed. The lysate was centrifuged at 14000 rpm for 30 minutes, and the supernatant was collected. A BCA protein analysis kit (Pierce, Rockford, Ill.) was used to determine the concentration of each sample, and the sample was subjected to electrophoresis (SDS-PAGE). Western blotting was carried out on the protein isolated by the electrophoresis. After electrophoresis of the sample, the protein was transferred to a polyvinylidene fluoride membrane (Pall Corporation). Then, after blocking the membrane at room temperature for one hour using 5% BSA solution (Amresco, USA), it was treated with primary antibodies and reaction was carried out for 12 hours at 4° C. The primary antibodies were AKT antibody and Actin antibody (Cell Signaling Technology, Beverly, Mass.), which are antibodies associated in cell proliferation-related signaling. After reaction with primary antibodies, it was washed for about 30 minutes and further reacted for 1 hour at room temperature by treating with HRP-conjugated secondary antibodies. Then, after washing sufficiently for over 30 minutes, protein was identified using an ECL detection kit (intron Biotechnology).

[3] = system: ERK; test: Western blotting of EGF-induced ERK activity in HEK293T; assay type: cell-based; settings: with 100 μg/ml of EGF, FIG. 3D
Protocol: In the same manner, in a sample of HEK293T (Kidney epithelial cell) cell line treated with pachastrissamine and 100 μg/ml of EGF (epidermal growth factor), ERK activity was determined (see FIG. 3D).

[4] = system: p-FoxO3a (Ser 253); test: Western blotting of p-FoxO3a (Ser 253); assay type: cell-based; settings: HaCaT, A375, B16F10, 10 μg/ml, FIGS. 4B, 4C
Protocol: In the same manner as described in Example 4-1, a HaCaT cell line and malignant melanoma cell lines (A375 and B16F10) were treated with pachastrissamine and phytosphingosine at a concentration of 10 μg/ml for 30 minutes and 60 minutes, respectively. Then, western blotting was carried out using p-FoxO3a (Ser 253) antibody.

[5] = system: malignant melanoma cell line B16F10; test: Mouse malignant melanoma (B16F10) lung metastasis model; assay type: in vivo; settings: C57BL6 mouse, B16F10 1×10^6 via tail vein; inoculated once per 4 days (three times); lung on 14th day; FIG. 6
Protocol: In a C57BL6 mouse, pachastrissamine's effect on malignant melanoma metastasis inhibition was researched. A mouse (aged 6 weeks) was inoculated with a malignant melanoma cell line B16F10 (1×10^6) through a tail vein. After 24 hours from the inoculation, pachastrissamine was inoculated, and also, in a control group, PBS was inoculated in the same amount. Pachastrissamine was inoculated once per 4 days (three times), and on the 14th day from the inoculation of cells, the mouse was dissected to extract the lung. The extracted lung was immersed in 4% formalin solution for 16 hours or more, and washed for 16 hours or more. After the washing, the extracted lung was photographed, and other tissues were embedded in paraffin to make a block. Then, a tissue slice with a thickness of […] was prepared. The tissue slice was subjected to a deparaffin process for H&E (Hematoxylin & Eosin) staining, and then sequentially reacted with 100%, 90%, 80%, 70%, and 60% alcohol solutions to complete the hydration reaction. The completely hydrated slice was subjected to H&E staining, and then reacted with the alcohol solutions in reverse order of the hydration reaction to perform a dehydration reaction. When the dehydration reaction was completed, the slice was fixed on a slide and observed by a microscope.

SMILES: CCCCCCCCCCCCCC[C@@H]1OC[C@H](N)[C@@H]1O [pachastrissamine]
- cell viability (number of surviving cells) with increasing concentration ([1]; 0, 0.9, 1.8, 3.7, 7.5, 10 μg/ml): the number of surviving cells was reduced
- cytotoxicity compared with phytosphingosine [1]: lower cytotoxicity than phytosphingosine
- phosphorylation of AKT after 30 minutes ([2]; 5 μg/ml phytosphingosine, 30 minutes): reduction of phosphorylation of AKT
- degree of AKT phosphorylation after 60 minutes ([2]; 60 minutes): increased
- ERK activity caused by EGF [3]: almost perfectly inhibit the ERK activity caused by EGF
- amount of expressed p-FoxO3a after 30 minutes ([4]; 30 minutes): reduced
- expression of p-FoxO3a after 60 minutes ([4]; 60 minutes): increased an expression of p-FoxO3a
- malignant melanoma metastasis to the lung compared to control group [5]: significantly inhibited
